For one assay, the system named is HEK293 cells. The experiment in a line: HEK293 viability assay (resazurin). The format is cell-based, human. The note with it: HEK293, 72 hr, top concentration 40 μM, n = 3. The method, then: To assess cytotoxicity of compounds in dose response, a resazurin-based assay was utilized to determine cell viability. In brief, HEK293 cells were grown in DMEM medium (Life Technologies) containing 10% foetal calf serum (FCS; Gibco). Cells were trypsinized, counted and seeded at 2,000 cells per well in 45 μl media into TC-treated 384-well plates (Falcon) and left to adhere overnight at 37°C, 5% CO2 and 95% humidity.
Test compounds were prepared as described above, to give a top final test concentration of 40 μM, 0.4% DMSO. Plates were incubated for 72 hr at 37°C, 5% CO2 and 95% humidity, then the media was removed and replaced by 35 μl of 44 μM resazurin in DMEM without FCS. The plates were incubated for another 4-6 hr at 37°C, 5% CO2 and 95% humidity before reading on an EnVision® Plate Reader (PerkinElmer) using fluorescence excitation/emission settings of 530 nm/595 nm. Determination of the% growth compared to controls (40 μM puromycin as positive and 0.4% DMSO as negative control) was performed in Microsoft® Excel 2010. Statistical analysis including IC50 determination and graphical output was performed in GraphPad Prism® 5 using nonlinear regression variable slope curve fitting.

For assay [1], the system named is P. falciparum CoA synthesis pathway. In words: Coenzyme A chemical rescue assay on P. falciparum. The format is cell-based, Plasmodium falciparum. The note with it: for IC50 shift upon CoA supplementation: eight-point dose response, fixed CoA (0.8-2 mM), n = 2. The protocol:
The well-established P. falciparum imaging assay was modified to allow assessment of chemical rescue with CoA. In brief, sorbitol (5% w/v) synchronization was performed twice, approximately 8 hr apart, on each synchronization day for two consecutive ring cycles, i.e., on day 1 and 3 of assay preparation. On day 2 the culture was split to approximately 2% trophozoite parasitaemia. On day 4 the culture was split to 1-1.5% trophozoite parasitaemia, which yielded approximately 8% ring parasitaemia after 48 hr (on day 5, i.e., the day of the assay set-up). Compound stocks (10 mM in 100% DMSO) were diluted 1:25 in sterile water, less than 24 hr prior to use. An additional 1:10 dilution was performed, resulting in a 1:250 overall compound dilution and a final DMSO concentration of 0.4%. For initial screening, compounds were tested at a final 2 μM concentration. […] The known P. falciparum CoA synthesis inhibitor, panthenol, was prepared as a 100 mM solution in 4% DMSO. The final concentration of the dose response curve of panthenol started at 10 mM and was serially diluted down to 100 nM. CoA was dissolved in water. […] Five μl of the 1:25 diluted test compound or control solutions were added to 384-well CellCarrier imaging plates (PerkinElmer). For the chemical rescue, 5 μl of CoA solution were added to ‘rescue’ wells and 5 μl water to all control and reference wells, respectively. Parasite culture was added to a final concentration of 1% parasitaemia (% P) and 0.3% haematocrit (% H). Plates were incubated for 72 hr at 37°C, 5% CO2 and 95% humidity. On day 8 the permeabilization and nuclear staining buffer was prepared in PBS containing 10 μg/ml saponin, 0.01% triton X, 5 mM EDTA (all: Sigma) and 0.5 μg/ml 4′,6-diamidino-2-phenylindole (DAPI; Life Technologies). The plates were left for at least 4 hr (typically overnight), before confocal imaging on an Opera™ High Content Screening Platform (PerkinElmer) at 405 nm excitation with a 20x water objective. Automated primary image analysis was performed concurrent with the imaging process, utilizing an Acapella® software (PerkinElmer) script to determine the number of parasites based on object size and fluorescence intensity. Determination of the % growth compared to controls (2 μM artemisinin as positive and 0.4% DMSO as negative control) was performed in Microsoft® Excel 2010. Statistical analysis including IC50 determination and graphical output was performed in GraphPad Prism® 5 using non-linear regression variable slope curve fitting. Cell-based high throughput screening (HTS) entails the distinct benefit that positive hits have already proven effective against the live parasite within its natural host erythrocyte environment. Modifications of an image-based assay were undertaken to identify compounds that interfere with the P. falciparum CoA pathway. The modification involved a chemical rescue approach adapted from a similar method used to investigate apicoplast function. The principle idea of the chemical rescue approach is that supplementation of an unbranched pathway’s end product – in this case CoA - should abrogate, or at least alleviate, negative growth effects of compounds inhibiting any step in the pathway. […] To identify new potential CoA synthesis inhibitors, the CoA chemical rescue approach was used to screen 144 compounds with known antiplasmodial activity identified by HTS in the Avery laboratory, in addition to the MMV malaria box. […] Compounds which rescued growth to at least 50% of control values and two-fold difference compared to treatment alone, were regarded as partial rescue hits.

A further assay has as its system 3D7 parasites. The experiment in a line: Time course for parasite stage affected and phenotype (Giemsa smears). It is filed as cell-based, Plasmodium falciparum. The conditions noted are these: for parasite stage of action / phenotype: compound at IC80, 0-48 hr. The method, then:
The principle of the P. falciparum imaging assay described above was used, with the exception that the parasite synchronization was adjusted to yield parasites synchronized to a 2-hr window as established in-house. In brief, sorbitol synchronization was performed twice (approximately 8 hr apart) on day 1 and only once on day 3 (around 10.00). Schizonts observed on day 4 were left to mature and when rings were first observed, the mature schizonts were isolated using a MACS® column (Miltenyi Biotec). The purified schizonts were incubated for 2 hr at 37°C, 5% CO2 and 5% O2 and 90% N2 on a shaker. The obtained 0-2 hr old ring stage parasites were isolated by removing the remaining schizonts by flow through a MACS® column and the highly synchronized rings obtained were seeded in the assay plates with the compounds as described above. At each time point, one whole columns (16 wells) of identically treated parasites, i.e., 0.4% DMSO as control, compound at its individual IC80 or compound at IC80 plus CoA, were pooled and centrifuged. A smear was made from the pellet and stained with Giemsa (Sigma) for assessment the phenotype of treated parasites with or without supplementation of 0.8 mM CoA in comparison to DMSO controls.
The parasite viability assay used above is an endpoint assay that spans two development cycles of the parasite. To investigate the parasite stage of action of the identified compounds and the phenotype of compound treated parasites, a light microscopy-based time course study was undertaken. The seven compounds of submicromolar activity were added at time point t0 at their respective IC80 concentrations, with and without the addition of 0.8 mM CoA. The 3D7 parasites used in this experiment were age synchronized to within a 2-hr window of the ring stage. Due to assay preparation time, the parasite age at t0 therefore ranged from 0.5 hr to 2.5 hr.
At t0, t18, t24 and t48 parasite cultures for all conditions were centrifuged and Giemsa-stained blood smears were prepared. The 18-hr treatment time point was specifically chosen, since it was expected to see the transition between ring and trophozoite stage in control cultures around this time point (parasite age range 18.5 hr to […]). Therefore any delay in the transition from ring to trophozoite stage under treatment with the compounds was expected to be discernible at this time point.

Setting [2] is: compound at ~ IC80, with CoA supplementation.
[3] abbreviates: compound at IC80 plus 0.8 mM CoA.
[4] abbreviates: compound at IC80 plus 0.8 mM CoA, t24.
Where [5] appears, read: compound at IC80 plus 0.8 mM CoA, t48.
The mark [6] stands for this setting: at 2 μM compound, with CoA supplementation.

The structures appear in SMILES notation.

As a reminder, the IC50 is the concentration needed to halve the response being measured. High values mean weaker potency in that assay, low ones greater potency in that assay.

Turning to `CCc1ccc(Nc2cc(C)c3ccc(O)cc3n2)cc1.Cl` [MMV000570/C614-0191], the IC50 in the assay on HEK293 cells was about 40 µM. In assay [1] (setting [2]), the “CoA rescue (relative parasite number, % of untreated control)” value is listed as 80% rescue at ~ IC80. Also, the “IC50 shift upon CoA supplementation” value in assay [1] is recorded as “more than doubled”. Further, the “parasite stage of action / phenotype” value with 3D7 parasites was “affects both the development of the ring and trophozoite stage of the parasite”. Moreover, the “dead or dying parasites (relative parasitaemia)” value is on record as “around 28%” in the assay with 3D7 parasites (compound at IC80, t24); about 20% in the assay on 3D7 parasites (compound at IC80, t48); 13.4% in the assay on 3D7 parasites (setting [4]); 8.3% in the assay with 3D7 parasites (setting [5]). Also, in the assay with 3D7 parasites (setting [3]), the “CoA rescue of stage progression / phenotype” value is given as “Addition of CoA did not alleviate this developmental delay”.
`CC(C)=NOC(=O)c1c(C)noc1-c1snnc1C` [SPB03400] displayed an IC50 in the assay with HEK293 cells of over 40 µM. The “CoA rescue (relative parasite number, % of untreated control)” value in assay [1] (setting [2]) came out at 50% rescue at ~ IC80. In addition, the “IC50 shift upon CoA supplementation” value in assay [1] came to 1.5 times. In addition, in the assay on 3D7 parasites, the “parasite stage of action / phenotype” value is on record as “No change in the relative parasitaemia of rings or trophozoites compared to the untreated controls”. Besides, the “ring form parasites showing abnormal morphologies” value with 3D7 parasites (compound at IC80, t48) is listed as “around 50%”.
`CC(=O)c1ccc2c3c(onc13)-c1ccccc1C2=O` [Amb3377585]: the IC50 in the assay with HEK293 cells was 2.75 µM. Further, in assay [1] (setting [2]), the “CoA rescue (relative parasite number, % of untreated control)” value was determined as 50% rescue at ~ IC80. For the same compound, the “IC50 shift upon CoA supplementation” value in assay [1] is on record as “greater than six times”. Further, in the assay with 3D7 parasites, the “parasite stage of action / phenotype” value is “killing both the ring and the trophozoite stage of the parasite from approximately t24”. Also, the “death rate of parasites (relative parasitaemia)” value in the assay on 3D7 parasites (compound at IC80, from t24 onwards) worked out at 49%. For the same compound, in the assay on 3D7 parasites (compound at IC80, t48), the “abnormal trophozoites as share of all counted living trophozoites” value is on record as 51% and the “relative parasitaemia of trophozoites showing abnormal morphology” value worked out at 30.5%. The “CoA rescue of stage progression / phenotype” value in the assay with 3D7 parasites (setting [3]) was “very good rescue of parasite development, death rates and morphology”.
The compound `COc1ccc2c(=O)cc(C(Cl)(Cl)Cl)oc2c1` [MMV665820/5534045] yielded an IC50 with HEK293 cells of 3.6 µM. The “CoA rescue (relative parasite number, % of untreated control)” value in assay [1] (setting [6]) came to 80% rescue at 2 μM. The “IC50 shift upon CoA supplementation” value in assay [1] was “greater than six times”. In assay [1] (retest), the “CoA rescue hit confirmation” value was “confirmed as a hit”. For the same compound, the “parasite stage of action / phenotype” value in the assay on 3D7 parasites is listed as “main compound action is on the trophozoite stage”. Further, the “relative parasitaemia of trophozoites showing abnormal morphology” value in the assay on 3D7 parasites (compound at IC80, t24) amounted to 42.9%. In the assay on 3D7 parasites (compound at IC80, t48), the “relative parasitaemia of dead or dying trophozoites” value came out at 13.8% and the “relative parasitaemia of trophozoites showing abnormal morphology” value was found to be 26.6%. The “CoA rescue of stage progression / phenotype” value with 3D7 parasites (setting [3]) was “CoA addition effectively rescued both parasite development and morphology”.
The compound `Cc1csc(Sc2ncnc3sccc23)n1` [Amb180780] registered an IC50 in the assay on HEK293 cells of about 40 µM. Moreover, in assay [1] (setting [2]), the “CoA rescue (relative parasite number, % of untreated control)” value is 80% rescue at ~ IC80. Also, the “IC50 shift upon CoA supplementation” value in assay [1] is “greater than six times”. Moreover, in the assay on 3D7 parasites (compound at IC80), the “compound-treated parasites able to progress from the ring to the trophozoite stage” value is recorded as “Less than 13%”. The “parasite stage of action / phenotype” value in the assay on 3D7 parasites is “arrest parasite development at the ring stage”. Moreover, the “dead or dying parasites (relative parasitaemia)” value with 3D7 parasites (compound at IC80, t48) is recorded as 28.6%; with 3D7 parasites (setting [4]), 20%; in the assay on 3D7 parasites (setting [5]), “control levels”. In addition, the “CoA rescue of stage progression / phenotype” value with 3D7 parasites (setting [3]) is on record as “rescued very well by CoA addition”.
In the assay on HEK293 cells, `CCOc1ccc(Nc2c3ccccc3nc3ccccc23)cc1.Cl` [MMV000304/Amb636705] had an IC50 of 1 µM. In addition, in assay [1] (setting [6]), the “CoA rescue (relative parasite number, % of untreated control)” value is 80% rescue at 2 μM. The “IC50 shift upon CoA supplementation” value in assay [1] is 1.5 times.
In the assay with HEK293 cells, `CC1=CC(=O)C(C(C)C)=C/C1=N/OS(=O)(=O)c1ccccc1` [STK 740987] gave an IC50 of over 40 µM. For the same compound, the “CoA rescue (relative parasite number, % of untreated control)” value in assay [1] (setting [6]) amounted to 50% rescue at 2 μM. The “IC50 shift upon CoA supplementation” value in assay [1] is listed as “greater than six times”. In addition, the “parasite stage of action / phenotype” value with 3D7 parasites is “no change in the stage composition of rings and trophozoites compared to the controls”. Further, the “dead or dying parasites (relative parasitaemia)” value in the assay on 3D7 parasites (compound at IC80, t24) is on record as “around 16%”.

(Values after publication PMC4168161, “A novel approach for the discovery of chemically diverse anti-malarial compounds targeting the Plasmodium falciparum Coenzyme A synthesis pathway” (Malaria Journal, 2014).)
